Results: ChEMBL document CHEMBL1201862, “PubChem BioAssay data set” (2004)
The source made the active and inactive calls. Cut-off read from the data, not from the text of the source: actives have a measured IC50 and inactives only a lower limit.

Target: Envelope glycoprotein gp160 (Human immunodeficiency virus 1, UniProt Q6QLK5)
Assay: inhibitors of HIV fusion peptide binding, primary screen, biochemical, uHTS, fluorescence dequenching (AID 1986)

Envelope glycoprotein gp160, sequence (Q6QLK5 whole entry, the tested form may be a part): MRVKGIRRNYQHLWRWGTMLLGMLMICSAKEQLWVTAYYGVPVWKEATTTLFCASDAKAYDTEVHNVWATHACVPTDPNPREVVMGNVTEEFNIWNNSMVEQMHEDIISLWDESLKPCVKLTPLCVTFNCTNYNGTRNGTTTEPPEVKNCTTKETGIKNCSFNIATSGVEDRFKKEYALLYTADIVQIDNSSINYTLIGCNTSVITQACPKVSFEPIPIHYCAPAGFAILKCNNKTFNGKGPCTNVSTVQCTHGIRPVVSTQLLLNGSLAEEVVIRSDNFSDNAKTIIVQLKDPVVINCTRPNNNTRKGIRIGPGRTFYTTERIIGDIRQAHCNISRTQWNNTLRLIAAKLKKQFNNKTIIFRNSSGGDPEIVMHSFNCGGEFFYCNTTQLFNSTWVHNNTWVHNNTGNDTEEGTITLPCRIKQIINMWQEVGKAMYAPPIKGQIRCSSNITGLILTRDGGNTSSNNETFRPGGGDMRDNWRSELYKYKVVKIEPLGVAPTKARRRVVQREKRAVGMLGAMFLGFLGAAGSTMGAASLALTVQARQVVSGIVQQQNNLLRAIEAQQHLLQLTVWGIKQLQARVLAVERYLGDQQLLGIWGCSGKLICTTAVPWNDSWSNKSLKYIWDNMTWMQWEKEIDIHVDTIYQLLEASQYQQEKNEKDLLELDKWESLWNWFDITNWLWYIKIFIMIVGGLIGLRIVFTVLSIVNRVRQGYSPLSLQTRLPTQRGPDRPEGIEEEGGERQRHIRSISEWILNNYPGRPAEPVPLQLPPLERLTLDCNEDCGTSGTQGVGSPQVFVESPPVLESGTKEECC

**Q.** O=C(O)CN1C(=O)/C(=C\c2cccc(OCc3ccc(Cl)cc3)c2)SC1=S was tested. Which IC50 did it give?
**A.** 13.6 µM (active)

**Q.** For CCCCCCc1c(C)c2ccc(OCC(=O)N[C@@H](Cc3ccccc3)C(=O)O)cc2oc1=O, which IC50 is on record?
**A.** 22.8 µM (active)

**Q.** For O=C1NC(=S)N(c2ccc(F)cc2)C(=O)/C1=C/c1ccco1, which IC50 is on record?
**A.** 15.6 µM (active)

**Q.** For Cc1cc(C)cc(-n2cccc2/C=C2/C(=N)N3C(=NC2=O)SN=C3S(C)(=O)=O)c1, which IC50 is on record?
**A.** 11.6 µM (active)

**Q.** Which IC50 does the source give for O=[N+]([O-])c1cccc(S(=O)(=O)Nc2nc3ccccc3nc2Nc2cccc(S(=O)(=O)N3CCCCC3)c2)c1 here?
**A.** 14.5 µM (active)

**Q.** For Cc1ccc(C)c(S(=O)(=O)/N=C2\C=C(NS(=O)(=O)c3ccccc3)C(=O)c3ccccc32)c1, which IC50 is on record?
**A.** 12.9 µM (active)
